{"source": "patent US12441691B2", "about": "(Cytokinetics, Inc., priority 2020, dated 2025)"}
{"system": "rabbit skeletal myofibrils (fast skeletal myofibrils)", "test": "Activation of fast skeletal myofibrils (PUMA assay, AC1.4)", "format": "biochemical", "settings": "calcium at pCa25, AC1.4 = concentration at which the compound increased the enzymatic activity", "how_it_was_run": "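In 12 mM PIPES pH 6.8 with 2 mM MgCl2 and 1 mM DTT, Triton-washed rabbit skeletal myofibrils were run at the pCa25 calcium level. Myosin-made ADP was recycled through a PK/LDH coupled system; NADH loss read at 340 nm.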", "units": {"AC1.4": "µM"}}
{"smiles": "CC[C@H](C)[C@H]1C(=O)Nc2ccccc2CN1CC1CCCC1", "note": "[Compound 315, (S)-3-((S)-sec-butyl)-4-(cyclopentylmethyl)-1,3,4,5-tetrahydro-2H-benzo[e][1,4]diazepin-2-one]", "AC1.4": 0.65}
{"smiles": "CC[C@H](C)[C@H]1C(=O)Nc2ccccc2CN1c1nc(N)n(C)n1", "note": "[Compound 118, (S)-4-(5-amino-1-methyl-1H-1,2,4-triazol-3-yl)-3-((S)-sec-butyl)-1,3,4,5-tetrahydro-2H-benzo[e][1,4]diazepin-2-one]", "AC1.4": 0.08}
{"smiles": "CC[C@H](C)[C@H]1C(=O)Nc2ccccc2CN1C(=O)Nc1cccn(C)c1=O", "note": "[Compound 94, (S)-3-((S)-sec-butyl)-N-(1-methyl-2-oxo-1,2-dihydropyridin-3-yl)-2-oxo-1,2,3,5-tetrahydro-4H-benzo[e][1,4]diazepine-4-carboxamide]", "AC1.4": 0.15}
{"smiles": "O=C1Nc2ccccc2CN(C(=O)CCO)[C@H]1C1CCCCC1", "note": "[Compound 124, (S)-3-cyclohexyl-4-(3-hydroxypropanoyl)-1,3,4,5-tetrahydro-2H-benzo[e][1,4]diazepin-2-one]", "AC1.4": 0.38}
{"smiles": "CC[C@H](C)[C@H]1C(=O)Nc2ccccc2CN1C(=O)c1cn(C)nc1CCO", "note": "[Compound 179, (S)-3-((S)-sec-butyl)-4-(3-(2-hydroxyethyl)-1-methyl-1H-pyrazole-4-carbonyl)-1,3,4,5-tetrahydro-2H-benzo[e][1,4]diazepin-2-one]", "AC1.4": 2.27}
{"smiles": "CC[C@H](C)[C@H]1C(=O)Nc2ccccc2CN1C(=O)c1ccc(C(N)=O)nc1", "note": "[Compound 158, 5-((S)-3-((S)-sec-butyl)-2-oxo-2,3,4,5-tetrahydro-1H-benzo[e][1,4]diazepine-4-carbonyl)picolinamide]", "AC1.4": 0.44}
{"smiles": "CC[C@H](C)[C@H]1C(=O)Nc2ccccc2CN1c1c(NC)c(=O)c1=O", "note": "[Compound 130, 3-((S)-3-((S)-sec-butyl)-2-oxo-1,2,3,5-tetrahydro-4H-benzo[e][1,4]diazepin-4-yl)-4-(methylamino)cyclobut-3-ene-1,2-dione]", "AC1.4": 0.06}
{"smiles": "CC[C@H](C)[C@H]1C(=O)Nc2ccccc2CN1C(=O)c1cc[nH]c(=O)c1", "note": "[Compound 48, (S)-3-((S)-sec-butyl)-4-(2-oxo-1,2-dihydropyridine-4-carbonyl)-1,3,4,5-tetrahydro-2H-benzo[d][1,4]diazepin-2-one]", "AC1.4": 0.06}
{"smiles": "CC[C@H](C)[C@H]1C(=O)Nc2ccccc2CN1C(=O)CS(N)(=O)=O", "note": "[Compound 110, 2-((S)-3-((S)-sec-butyl)-2-oxo-1,2,3,5-tetrahydro-4H-benzo[e][1,4]diazepin-4-yl)-2-oxoethane-1-sulfonamide]", "AC1.4": 1.36}
{"smiles": "CC[C@H](C)[C@H]1C(=O)Nc2ccccc2CN1C(=O)N1CC[C@H](O)C1", "note": "[Compound 282, (S)-3-((S)-sec-butyl)-4-((S)-3-hydroxypyrrolidine-1-carbonyl)-1,3,4,5-tetrahydro-2H-benzo[e][1,4]diazepin-2-one]", "AC1.4": 0.38}
{"smiles": "CC[C@H](C)[C@H]1C(=O)Nc2ccccc2CN1C(=O)c1cn[nH]c1", "note": "[Compound 45, (S)-3-((S)-sec-butyl)-4-(1H-pyrazole-4-carbonyl)-1,3,4,5-tetrahydro-2H-benzo[e][1,4]diazepin-2-one]", "AC1.4": 0.08}
{"smiles": "NC(=O)c1ccc(C(=O)N2Cc3ccccc3NC(=O)[C@@H]2C2CCCCC2)cc1", "note": "[Compound 125, (S)-4-(3-cyclohexyl-2-oxo-2,3,4,5-tetrahydro-1H-benzo[e][1,4]diazepine-4-carbonyl)benzamide]", "AC1.4": 0.29}
{"smiles": "CC[C@H](C)[C@H]1C(=O)Nc2ccccc2CN1C(=O)c1ccnnc1", "note": "[Compound 190, (S)-3-((S)-sec-butyl)-4-(pyridazine-4-carbonyl)-1,3,4,5-tetrahydro-2H-benzo[e][1,4]diazepin-2-one]", "AC1.4": 0.54}
{"smiles": "CC[C@H](C)[C@H]1C(=O)Nc2ccccc2CN1C(=O)c1cc(O)n[nH]1", "note": "[Compound 50, (S)-3-((S)-sec-butyl)-4-(3-hydroxy-1H-pyrazole-5-carbonyl)-1,3,4,5-tetrahydro-2H-benzo[e][1,4]diazepin-2-one]", "AC1.4": 0.17}
{"smiles": "CC[C@H](C)[C@H]1C(=O)Nc2ccccc2CN1C(=O)c1nc2cccnc2[nH]1", "note": "[Compound 171, (S)-3-((S)-sec-butyl)-4-(3H-imidazo[4,5-b]pyridine-2-carbonyl)-1,3,4,5-tetrahydro-2H-benzo[e][1,4]diazepin-2-one]", "AC1.4": 0.03}
{"smiles": "CC[C@H](C)[C@H]1C(=O)Nc2ccccc2CN1C(=O)Nc1cccnc1", "note": "[Compound 99, (S)-3-((S)-sec-butyl)-2-oxo-N-(pyridin-3-yl)-1,2,3,5-tetrahydro-4H-benzo[e][1,4]diazepine-4-carboxamide]", "AC1.4": 0.05}
{"smiles": "CC[C@H](C)[C@H]1C(=O)Nc2ccccc2CN1C(=O)c1ccc(C(=O)N2CC(O)C2)[nH]1", "note": "[Compound 180, (S)-3-((S)-sec-butyl)-4-(5-(3-hydroxyazetidine-1-carbonyl)-1H-pyrrole-2-carbonyl)-1,3,4,5-tetrahydro-2H-benzo[e][1,4]diazepin-2-one]", "AC1.4": 0.10}
{"smiles": "CC[C@H](C)[C@H]1C(=O)Nc2ccc(Cl)cc2CN1C(N)=O", "note": "[Compound 73, (S)-3-((S)-sec-butyl)-7-chloro-2-oxo-1,2,3,5-tetrahydro-4H-benzo[e][1,4]diazepine-4-carboxamide]", "AC1.4": 0.93}
{"smiles": "CC[C@H](C)[C@H]1C(=O)Nc2ccccc2CN1c1c(N)c(=O)c1=O", "note": "[Compound 57, 3-Amino-4-((S)-3-((S)-sec-butyl)-2-oxo-1,2,3,5-tetrahydro-4H-benzo[e][1,4]diazepin-4-yl)cyclobut-3-ene-1,2-dione]", "AC1.4": 0.03}
{"smiles": "CC[C@H](C)[C@H]1C(=O)Nc2ccccc2CN1C(=O)N(C)CCO", "note": "[Compound 225, (S)-3-((S)-sec-butyl)-N-(2-hydroxyethyl)-N-methyl-2-oxo-1,2,3,5-tetrahydro-4H-benzo[e][1,4]diazepine-4-carboxamide]", "AC1.4": 1.67}
{"smiles": "CC[C@H](C)[C@H]1C(=O)Nc2ccccc2CN1C(=O)NC[C@@H](O)CO", "note": "[Compound 208, (S)-3-((S)-sec-butyl)-N-((R)-2,3-dihydroxypropyl)-2-oxo-1,2,3,5-tetrahydro-4H-benzo[e][1,4]diazepine-4-carboxamide]", "AC1.4": 2.70}
{"smiles": "CC[C@H](C)[C@H]1C(=O)Nc2ccccc2CN1C(=O)NCCS(C)(=O)=O", "note": "[Compound 220, (S)-3-((S)-sec-butyl)-N-(2-(methylsulfonyl)ethyl)-2-oxo-1,2,3,5-tetrahydro-4H-benzo[e][1,4]diazepine-4-carboxamide]", "AC1.4": 3.01}
{"smiles": "CC[C@H](C)[C@H]1C(=O)Nc2ccccc2CN1C(=O)N[C@H]1CCN(CCO)C1", "note": "[Compound 141, (S)-3-((S)-sec-butyl)-N-((S)-1-(2-hydroxyethyl)pyrrolidin-3-yl)-2-oxo-1,2,3,5-tetrahydro-4H-benzo[e][1,4]diazepine-4-carboxamide]", "AC1.4": 0.54}
{"smiles": "CC[C@H](C)[C@H]1C(=O)Nc2ccccc2CN1C(=O)Nc1ccc(=O)n(CC(F)F)n1", "note": "[Compound 274, (S)-3-((S)-sec-butyl)-N-(1-(2,2-difluoroethyl)-6-oxo-1,6-dihydropyridazin-3-yl)-2-oxo-1,2,3,5-tetrahydro-4H-benzo[e][1,4]diazepine-4-carboxamide]", "AC1.4": 0.06}
{"smiles": "CC[C@H](C)[C@H]1C(=O)Nc2cncc(F)c2CN1C(=O)COC", "note": "[Compound 363, (S)-3-((S)-sec-butyl)-6-fluoro-4-(2-methoxyacetyl)-1,3,4,5-tetrahydro-2H-pyrido[3,4-e][1,4]diazepin-2-one]", "AC1.4": 2.60}
{"smiles": "CC[C@H](C)[C@H]1C(=O)Nc2ccccc2CN1C(=O)N1CC(C)(N)C1", "note": "[Compound 271, (S)-4-(3-amino-3-methylazetidine-1-carbonyl)-3-((S)-sec-butyl)-1,3,4,5-tetrahydro-2H-benzo[e][1,4]diazepin-2-one]", "AC1.4": 0.95}
{"smiles": "CC[C@H](C)[C@H]1C(=O)Nc2ccccc2[C@@H](C)N1C(=O)c1cnn(C)c1", "note": "[Compound 319, (3S,5R)-3-((S)-sec-butyl)-5-methyl-4-(1-methyl-1H-pyrazole-4-carbonyl)-1,3,4,5-tetrahydro-2H-benzo[e][1,4]diazepin-2-one]", "AC1.4": 0.80}
{"smiles": "CC[C@H](C)[C@H]1C(=O)Nc2ccccc2CN1C(=O)CNC(C)=O", "note": "[Compound 195, N-(2-((S)-3-((S)-sec-butyl)-2-oxo-1,2,3,5-tetrahydro-4H-benzo[e][1,4]diazepin-4-yl)-2-oxoethyl)acetamide]", "AC1.4": 1.84}
{"smiles": "CC[C@H](C)[C@H]1C(=O)Nc2ccccc2CN1c1ncncn1", "note": "[Compound 61, (S)-3-((S)-sec-Butyl)-4-(1,3,5-triazin-2-yl)-1,3,4,5-tetrahydro-2H-benzo[e][1,4]diazepin-2-one]", "AC1.4": 0.07}
{"smiles": "CC[C@H](C)[C@H]1C(=O)Nc2ccccc2CN1/C(=N/C#N)N(C)C", "note": "[Compound 21, (S,E)-3-((S)-sec-Butyl)-N′-cyano-N,N-dimethyl-2-oxo-1,2,3,5-tetrahydro-4H-benzo[e][1,4]diazepine-4-carboximidamide]", "AC1.4": 0.18}
{"smiles": "CC[C@H](C)[C@H]1C(=O)Nc2ccccc2CN1C(=O)c1cc2nc(C(N)=O)ccc2[nH]1", "note": "[Compound 168, 2-((S)-3-((S)-sec-butyl)-2-oxo-2,3,4,5-tetrahydro-1H-benzo[e][1,4]diazepine-4-carbonyl)-1H-pyrrolo[3,2-b]pyridine-5-carboxamide]", "AC1.4": 0.04}
{"smiles": "CC[C@H](C)[C@H]1C(=O)Nc2ccccc2CN1C(=O)c1ccc(C(=O)NCC(O)CO)[nH]1", "note": "(stereo partly drawn) [Compound 175, 5-((S)-3-((S)-sec-butyl)-2-oxo-2,3,4,5-tetrahydro-1H-benzo[e][1,4]diazepine-4-carbonyl)-N-(2,3-dihydroxypropyl)-1H-pyrrole-2-carboxamide]", "AC1.4": 0.04}
{"smiles": "CC[C@H](C)[C@H]1C(=O)Nc2ccc(F)cc2CN1C(=O)N[C@H]1CCN(C)C1", "note": "[Compound 350, (S)-3-((S)-sec-butyl)-7-fluoro-N-((S)-1-methylpyrrolidin-3-yl)-2-oxo-1,2,3,5-tetrahydro-4H-benzo[e][1,4]diazepine-4-carboxamide]", "AC1.4": 1.11}
